Drawing on patent US8722704B2, “Modulators of ATP-binding cassette-transporters” (Vertex Pharmaceuticals Incorporated, priority 2007, dated 2014), this text covers EC50 for two compounds.

By EC50 is commonly meant the concentration giving half of the maximal effect.

Where only a bound is given, the exact number is not on record here.

The experiment concerns the target T1, ΔF508-CFTR (Homo sapiens, UniProt P13569, DEL508-508).
T1 construct: expressed in transfected cells
Briefly: Assays for detecting and measuring ΔF508-CFTR correction properties (membrane potential optical assay; Table 3 does not say which assay). The experiment is classed as cell-based. As to conditions: IC50/EC50 bins; NIH3T3 mouse fibroblasts stably expressing ΔF508-CFTR; read-out: Binned EC50. The source says: The optical membrane potential assay utilized voltage-sensitive FRET sensors described by Gonzalez and Tsien (See Gonzalez, J. E. and R. Y. Tsien (1995) “Voltage sensing by fluorescence resonance energy transfer in single cells” Biophys J 69(4): 1272-80, and Gonzalez, J. E. and R. Y. Tsien (1997) “Improved indicators of cell membrane potential that use fluorescence resonance energy transfer” Chem Biol 4(4): 269-77) in combination with instrumentation for measuring fluorescence changes such as the Voltage/Ion Probe Reader (VIPR) (See Gonzalez, J. E., K. Oades, et al. (1999) “Cell-based assays and instrumentation for screening ion-channel targets” Drug Discov Today 4(9): 431-439).
These voltage sensitive assays are based on the change in fluorescence resonant energy transfer (FRET) between the membrane-soluble, voltage-sensitive dye, DiSBAC2(3), and a fluorescent phospholipid, CC2-DMPE, which is attached to the outer leaflet of the plasma membrane and acts as a FRET donor. Changes in membrane potential (Vm) cause the negatively charged DiSBAC2(3) to redistribute across the plasma membrane and the amount of energy transfer from CC2-DMPE changes accordingly. The changes in fluorescence emission were monitored using VIPR™ II, which is an integrated liquid handler and fluorescent detector designed to conduct cell-based screens in 96- or 384-well microtiter plates.
To identify small molecules that correct the trafficking defect associated with ΔF508-CFTR; a single-addition HTS assay format was developed. The cells were incubated in serum-free medium for 16 hrs at 37° C. in the presence or absence (negative control) of test compound. As a positive control, cells plated in 384-well plates were incubated for 16 hrs at 27° C. to “temperature-correct” ΔF508-CFTR. The cells were subsequently rinsed 3× with Krebs Ringers solution and loaded with the voltage-sensitive dyes. To activate ΔF508-CFTR, 10 μM forskolin and the CFTR potentiator, genistein (20 μM), were added along with Cl^−-free medium to each well. The addition of Cl^−-free medium promoted Cl^− efflux in response to ΔF508-CFTR activation and the resulting membrane depolarization was optically monitored using the FRET-based voltage-sensor dyes. […]
3. Solutions • Bath Solution #1: (in mM) NaCl 160, KCl 4.5, CaCl2 2, MgCl2 1, HEPES 10, pH 7.4 with NaOH. • Chloride-free bath solution: Chloride salts in Bath Solution #1 are substituted with gluconate salts. • CC2-DMPE: Prepared as a 10 mM stock solution in DMSO and stored at −20° C. • DiSBAC2(3): Prepared as a 10 mM stock in DMSO and stored at −20° C.
NIH3T3 mouse fibroblasts stably expressing ΔF508-CFTR are used for optical measurements of membrane potential. The cells are maintained at 37° C. in 5% CO2 and 90% humidity in Dulbecco's modified Eagle's medium supplemented with 2 mM glutamine, 10% fetal bovine serum, 1×NEAA, β-ME, 1×pen/strep, and 25 mM HEPES in 175 cm^2 culture flasks. For all optical assays, the cells were seeded at 30,000/well in 384-well matrigel-coated plates and cultured for 2 hrs at 37° C. before culturing at 27° C. for 24 hrs for the potentiator assay. For the correction assays, the cells are cultured at 27° C. or 37° C. with and without compounds for 16-24 hours.

T1 sequence (P13569 with tags, fused parts or gaps DEL508-508): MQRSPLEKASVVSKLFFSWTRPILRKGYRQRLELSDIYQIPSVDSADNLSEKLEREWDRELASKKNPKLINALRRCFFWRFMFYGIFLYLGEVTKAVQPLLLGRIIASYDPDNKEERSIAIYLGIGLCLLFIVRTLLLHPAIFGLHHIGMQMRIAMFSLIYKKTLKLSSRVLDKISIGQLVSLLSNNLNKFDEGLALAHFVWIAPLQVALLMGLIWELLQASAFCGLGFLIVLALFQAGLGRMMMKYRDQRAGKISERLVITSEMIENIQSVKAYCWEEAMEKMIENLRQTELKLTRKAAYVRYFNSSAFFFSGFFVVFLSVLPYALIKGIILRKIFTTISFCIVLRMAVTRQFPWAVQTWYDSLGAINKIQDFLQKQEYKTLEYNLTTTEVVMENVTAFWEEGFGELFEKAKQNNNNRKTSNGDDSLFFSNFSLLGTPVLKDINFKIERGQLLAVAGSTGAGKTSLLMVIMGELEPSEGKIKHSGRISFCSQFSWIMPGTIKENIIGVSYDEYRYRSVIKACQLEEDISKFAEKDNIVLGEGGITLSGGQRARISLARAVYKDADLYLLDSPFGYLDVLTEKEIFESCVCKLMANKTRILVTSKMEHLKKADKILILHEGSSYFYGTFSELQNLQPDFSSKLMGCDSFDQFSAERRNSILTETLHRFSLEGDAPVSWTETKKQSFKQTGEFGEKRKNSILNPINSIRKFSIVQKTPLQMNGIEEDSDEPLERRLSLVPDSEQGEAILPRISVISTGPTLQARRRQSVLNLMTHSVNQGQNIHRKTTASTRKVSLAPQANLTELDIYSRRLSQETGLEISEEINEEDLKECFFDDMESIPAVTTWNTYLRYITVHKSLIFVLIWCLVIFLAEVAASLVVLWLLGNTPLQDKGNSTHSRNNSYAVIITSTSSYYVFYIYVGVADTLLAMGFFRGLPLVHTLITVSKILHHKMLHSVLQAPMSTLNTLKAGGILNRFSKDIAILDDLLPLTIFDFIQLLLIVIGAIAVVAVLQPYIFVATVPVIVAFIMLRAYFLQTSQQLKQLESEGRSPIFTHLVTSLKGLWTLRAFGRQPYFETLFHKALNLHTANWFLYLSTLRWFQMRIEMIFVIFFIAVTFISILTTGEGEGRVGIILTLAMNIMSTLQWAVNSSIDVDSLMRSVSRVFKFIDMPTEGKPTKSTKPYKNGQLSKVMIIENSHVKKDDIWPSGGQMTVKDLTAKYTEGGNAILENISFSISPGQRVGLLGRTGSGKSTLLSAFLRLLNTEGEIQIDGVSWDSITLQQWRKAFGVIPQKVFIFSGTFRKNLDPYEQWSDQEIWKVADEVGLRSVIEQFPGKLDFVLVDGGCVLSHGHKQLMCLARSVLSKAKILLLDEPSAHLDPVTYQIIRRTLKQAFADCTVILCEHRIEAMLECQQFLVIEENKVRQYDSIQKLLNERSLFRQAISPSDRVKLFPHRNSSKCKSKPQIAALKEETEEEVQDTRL

For `CNS(=O)(=O)c1ccc(-c2nc(NC(=O)C3(c4ccc5c(c4)OC(F)(F)O5)CC3)cc3ccccc23)c(C)c1` [Compound 26, 1-(2,2-difluorobenzo[d][1,3]dioxol-5-yl)-N-(1-(2-methyl-4-(N-methylsulfamoyl)phenyl)isoquinolin-3-yl)cyclopropanecarboxamide], the concentration giving a half-maximal response (EC50) is at most 2000 nM.

Regarding `CC(=O)NCc1ccc(-c2nc(NC(=O)C3(c4ccc5c(c4)OC(F)(F)O5)CC3)cc3ccccc23)cc1` [Compound 3, N-(1-(4-(Acetamidomethyl)phenyl)isoquinolin-3-yl)-1-(2,2-difluorobenzo[d][1,3]dioxol-5-yl)cyclopropanecarboxamide], the EC50 is at most 2000 nM.
